Laboratory results taken from patent publication US20060058395A1, “Compounds useful for the treatment of diseases responsive to antiangiogenetic therapy” (NEUROSEARCH A/S, priority 2002, published 2006).
Where “and” joins values, the source holds several entries; their conditions need not be identical. Equal values may be shown once.

Tests used:
HUVEC = assay: Cell morphology and proliferation assay; assay type: cell-based
Experimental: Cell Morphology and Proliferation Assay
One week before the assay, a vial with HUVEC (passage 1) was thawed and cultured (after a split ratio of 1:3) to confluence (passage 2). The confluent culture of HUVEC was detached by trypsin/EDTA solution, and allowed to adhere and spread at cell density of 10, 50 and 100% confluency on gelatine-coated dishes in M199-HEPES medium supplemented with 10% heat-inactivated NBCS, 10% human serum and penicillin/streptomycin. After 18 h the HUVEC were preincubated with the test compounds for 4 hours. Then the HUVEC were washed and restimulated in the absence or presence of the test compounds and the reference compounds with 2.5 ng/ml FGF-2 in M199-HEPES, penicillin/streptomycin, 10% NBCS, 10% human serum and 0.1% DMSO in triplicate wells for 5 (10% confluency) or 3 days (50 and 100% confluency), with or without the test compounds. The cell number was determined by image analysis (P. Koolwijk, 2001)
To investigate the mode of action of the compound on proliferating and non-proliferating HUVEC, experiments were performed on 10%, 50% and 100% confluent monolayers of HUVEC. The 10% and 50% confluent HUVEC monolayers represent the status of angiogenic endothelial cells able to proliferate and migrate when stimulated. The 100% HUVEC monolayers represent the quiescent character of the endothelial cells in the existing blood vessel. The 4-hour preincubation experiments were performed to be able to discriminate between general toxicity and the induction of apoptosis.

[1] = system: HUVEC, fibroblasts, Mel 57 and T47D cells; assay: Cell-specificity assay: incorporation of [3H]thymidine; assay type: cell-based; conditions: bFGF-induced HUVEC and fibroblast proliferation vs NBCS-induced Mel 57 and T47D proliferation; FIG. 1
Experimental: Cell-Specificity Assay: Incorporation of [^3H]Thymidine
Confluent cultures of HUVEC, fibroblasts, Mel 57 and T47D cells were detached by trypsin/EDTA solution, and allowed to adhere and spread at an appropriate cell density on gelatine-coated dishes in M199-HEPES medium or DMEM-HEPES medium both supplemented with 10% heat-inactivated new born calve serum (NBCS) and penidillin/streptomycin. After 18 h the HUVEC and fibroblasts were stimulated with 2.5 ng/ml FGF-2 in M199-HEPES, penicillin/streptomycin, 10% NBCS and 0.1% DMSO in duplicate wells, with or without the test compounds. […] Subsequently, the cells were washed with PBS, [3H]-labelled DNA were fixed with methanol, and precipitated in 5% trichloroacetic-acid, and finally dissolved in 0.5 ml 0.3 M NaOH and counted in a liquid scintillation counter.
All outcome measures were measured in singular, i.e. one measurement per culture well. The proliferation of HUVEC, fibroblast, Mel 57, and T47D tumor cells was expressed as mean±range [3H]-thymidine incorporation (dpm) of duplicate wells.
The percentage of inhibition of FGF-2-induced HUVEC and fibroblast proliferation by the compounds was calculated as follows: [formula] […] The percentage of inhibition of the Mel 57 and T47D tumor cell proliferation by the compounds will be calculated as follows: [formula] […]

neovascularisation = assay: Mouse anti-angiogenesis assay (bFGF sponge implant); assay type: in vivo; conditions: for neovascularisation in mice (percent inhibition): Days 3-9
Experimental: NMRI female mice (SPF Bom:NMRI) weighing 25-27 g were obtained from M&B, Ejby, Lille Skensved, Denmark. They were housed in a facility where light was controlled on a 12 hour light-dark cycle. […] The animals were fed a pelleted rodent diet (Altromin 1324, Brogarden, Denmark) ad libitum and had free access to tap water. All animals were observed daily for clinical signs.
Slow-release pellets containing 400 ng of human basic fibroblast growth factor (Innovative Research of America, Florida, USA) were circular and with a diameter of 1.5 mm. The angiogenic peptide was guarantied by the supplier to be released over a period of 10 days.
The mice were anaesthetized using inhalation anaesthesia (halothane/N2O and oxygen). The skin of the back was shaved using an electric shaver and the skin was disinfected using 70% ethanol. A 5 mm incision was made transversely in close proximity to the shoulder blades and a 2 cm pocket reaching caudally to the pelvic region was created by blunt dissection, carefully separating the skin from the fascie. A polyurethane sponge with the dimension of 8×5×3 mm containing a slow-release pellet of 400 ng bFGF was placed at the caudal end of the pocket and the incision was closed by a single or double invert suture using Perma-Hand Seide 4/0 (Johnson & Johnson, Brussels, Belgium). The animals were treated by an analgesic subcutaneous injection of carprofen 2 mg/kg.
The angiogenic response was quantitated as previously described (Lichtenberg et al., 1997, 1999 & 2002). Briefly, twenty minutes before euthanasia 1 μCi of ^125I-labelled immuno-globulin (Amersham, UK) in 50 μl of 0.9% NaCl was injected intravenously into a tail vein. The animals were euthanised by O2/CO2 asphyxiation and the skin overlying the sponge implant was removed. The sponge implant with the pellet was placed in a plastic vial containing 4% formalin and the ^125I-activity was measured in a γ-counter. Differences in angiogenic response measured as ^125I-activity in cpm were assessed by Student's t-test, grouped data, with P<0.05 regarded as statistically significant. Data was expressed as means±SEM.
Three separate experiments were conducted: Two experiments were performed with Compound a and one experiment was performed with Compound b. In the first two experiments with Compound a, 3 groups each comprising 5 animals was treated orally with Compound a at the dose levels of 0 (saline), 5 and 10 mg/kg/day (experiment 1) and with 20 and 40 mg/kg/day (experiment 2). In the third experiment, 3 groups each comprising 6 animals was treated orally with the vehicle (saline) and 80 mg/kg/day of Compound a. In all experiments the animals were treated from Days 3-9 and killed at day 10.

B16/F10 melanoma cells = assay: Mouse metastasis assay; assay type: in vivo, mice; conditions: for Colony Count (B16 melanoma lung colonies): day 14, mean ± SEM; for % Reduction of melanoma lung colonies vs vehicle: C57BL/6 mice
From the text: Female C57BL/6 mice were supplied and delivered by Charles River UK Ltd. The animals were approximately 6 weeks of age at the start of the study. The body weights at the start of dosing were in the range 10-21 g. The mice were housed in solid-bottomed plastic cages, containing wood shavings, in groups of up to 10. During acclimatization, the rooms and cages were cleaned at regular intervals to maintain hygiene. The mice were fed an expanded rodent diet ad libitum and allowed free access to mains tap water. […] (McKay, 2002).
Data was expressed as means±SEM and analysed using appropriate statistical methods. Statistical significance was assumed when P<0.05.
Two separate studies were conducted: One was performed with Compound a (experiment 1) and one with Compound b (experiment 2). In each study there were 4 treatment groups. The treatment groups were as follows:
Treatments for groups 24 were administered orally, by gavage. The dose volume used was 20 ml/kg for groups 2 and 4 and 15 ml/kg for group 3.
C57BU6 mice were injected intravenously, via a tail vein, with 0.1 ml of a suspension of B16/F10 melanoma cells (approximately 3×10^5 cells/mouse) on day 0. With the exception of the untreated group, animals were dosed orally, by gavage, or intravenously, according to their allocated treatment group once daily, from day −2 to day 10 (13 administrations). The animals were killed on day 14 (14 days after injection of the tumour cells). The lungs from each animal were removed and weighed prior to fixing in Bouin's solution.

[2] = 60 mg/kg p.o. once daily day -2 to day 10, C57BL/6 mice
[3] = 80 mg/kg p.o. once daily day -2 to day 10, C57BL/6 mice

`O=C(Nc1ccc([N+](=O)[O-])cc1)Nc1ccc(Br)cc1-c1nnn[nH]1` [Compound a, N-4-Nitrophenyl-N′-[4-bromo-2-(1-H-tetrazol-5-yl)phenyl]urea] was tested. Which “inhibition of HUVEC proliferation” value (HUVEC; 4-hour preincubation, compound then removed for the rest of the stimulation period) did it give?
Its value is “not able to inhibit HUVEC proliferation significantly”.

What about the “cytotoxicity (HUVEC morphology, floating dead cells)” value (HUVEC; 100% confluent monolayers, culture periods with the compound) of the same compound?
The value was “no change of HUVEC morphology and the amount of floating dead cells”.

What about the “cytotoxicity (cell death, floating cells in the media)” value (HUVEC; HUVEC, 4-hour preincubation period) of the same compound?
The value was “No signs of any cytotoxicity”.

What about the “inhibition of HUVEC proliferation” value (HUVEC; continuous presence of the compound, 10% confluent monolayers) of the same compound?
The value was “clear inhibitory effect”.

And the “inhibition of HUVEC proliferation” value (HUVEC; continuous presence of the compound, 50% confluent monolayers)?
Its value is “slightly observed”.

And the “inhibition of HUVEC proliferation” value (HUVEC; continuous presence of the compound, 100% confluent monolayers)?
The value was “no effect”.

And the “cell-specificity of inhibition of proliferation” value [1]?
Its value is “more potent inhibitor of the bFGF-induced HUVEC and fibroblast proliferation”.

What about the “neovascularisation in mice (percent inhibition)” value (neovascularisation; 5 mg/kg/day orally) of the same compound?
Its value is 15%.

And the “neovascularisation in mice (percent inhibition)” value (neovascularisation; 20 mg/kg/day orally)?
Its value is 28%.

What about the “No Effect Level (NOEL)” value (neovascularisation; oral, neovascularisation in mice) of the same compound?
Its value is 5 mglkg/day.

And the “Colony Count (B16 melanoma lung colonies)” value (“Colony Count” for short) (B16/F10 melanoma cells; [2])?
Its value is 64.68 ± 2.65.

What about the “% Reduction of melanoma lung colonies vs vehicle” value (“% Reduction” for short) (B16/F10 melanoma cells; 60 mg/kg p.o.) of the same compound?
The value was 17% and 17.38%.

What about the “Colony Count” value (B16/F10 melanoma cells; [3]) of the same compound?
Its value is 61.85 ± 2.89.

What about the “% Reduction” value (B16/F10 melanoma cells; 80 mg/kg p.o.) of the same compound?
The value was 21%.

How did the “tolerability (signs of toxicity, body weight gain)” value (neovascularisation; mice, selected dose levels, oral) turn out when `O=C(Nc1cc(C(F)(F)F)cc(C(F)(F)F)c1)Nc1ccc(Br)cc1-c1nnn[nH]1` [Compound b, N-3,5-Di(trifluoromethyl)phenyl-N′-[4-bromo-2-(1-H-tetrazol-5-yl)phenyl]urea] was run?
Its value is “no signs of toxicity or changes of the body weight gain”.

And the “Colony Count” value (B16/F10 melanoma cells; [2])?
The value was 41.55 ± 9.55.

And the “% Reduction” value (B16/F10 melanoma cells; 60 mg/kg p.o.)?
Its value is 36% and 36.45%.

What about the “Colony Count” value (B16/F10 melanoma cells; [3]) of the same compound?
Its value is 36.65 ± 5.82.

And the “% Reduction” value (B16/F10 melanoma cells; 80 mg/kg p.o.)?
Its value is 44% and 43.97%.
